This is an account of results in patent publication US20120135417A1, “METHODS FOR SCREENING AND IDENTIFYING COMPOUNDS” (priority 2009, published 2012).

Assay type in all cases: biochemical
Test [1] concerns FMN riboswitch (B. subtilis ribDEAHT operon). Briefly: FMN riboswitch-mediated in vitro transcription termination assay, RiboGreen fluorescence detection. The note with it: FIG. 14; RNA binding fluorophore (RiboGreen) detection, 10 μM each rNTP, 3 mM Mg2+, 4-hour reaction.
Test [2] has the same test system. Briefly: FMN riboswitch-mediated in vitro transcription termination assay, [α-33P]-ATP radiometric detection. As for the experimental part:
The FMN riboswitch within the leader sequence of the B. subtilis ribDEAHT operon was amplified by PCR from B. subtilis strain 168 (Bacillus Genetic Stock Center—designation 1A1). PCR of a B. subtilis genomic preparation is performed using Platinum® Taq DNA Polymerase High Fidelity from Invitrogen (catalog #11304-011) and the sense PCR and the antisense polyA PCR primers (SEQ ID: NO 1 and 2, or SEQ ID: NO 1 and 3, respectively, as shown in table below). […] These overhangs allow the ligation of DNA into the pCR®2.1-TOPO® vector using a TOPO TA Cloning® kit (Invitrogen catalog #K4500-01). Following transformation, colonies that contained disrupted β-galactosidase are picked and grown overnight. Correct insertion and orientation of PCR product are verified by restriction analysis and sequencing. PCR of the resulting clone is used to generate DNA sequences for use in in vitro transcription termination assays. […]
Synthetic DNA primers and a biotinylated oligo (dT) may be obtained from the Keck Foundation Biotechnology Resource Center at Yale University. […] 50 μl of Microscint™PS (PerkinElmer, catalog #6013631) are then added to wells and the plate is read in a TopCount®NXT™ microplate scintillation and luminescence counter (PerkinElmer). Other readers and counters may be also be used. […]

Test [3] has as its system TPP riboswitch (B. subtilis tenA operon). Briefly: TPP riboswitch-mediated in vitro transcription termination assay, RiboGreen fluorescence detection. The following applies: FIG. 15; RNA binding fluorophore (RiboGreen) detection, 5 μM each rNTP, 2 mM Mg2+, 3-hour reaction.
Method: In vitro plate-based transcription assay: In vitro transcription reactions are carried out at 25° C. in a total reaction volume of 50 μL. Reactions are performed in Reacti-Bind™ Streptavidin High Binding Capacity Coated 96-Well Plates (Pierce, catalog #15502) in assay buffer at a final concentration of 20 mM HEPES at pH 8.0, 60 mM KCl, 0.1 mM EDTA, and 0.005% BSA. To prepare plates, wells are washed three times with successive addition and aspiration of wash buffer containing 25 mM Tris-HCl at pH 7.4 and 150 mM NaCl. Each well is then given assay buffer, followed by addition of FMN into control wells or DMSO into test wells. Enzyme mixture containing sigma-saturated E. coli polymerase (Epicentre Biotechnologies, catolog #S90250) was then added to all wells. The reaction was initiated by the addition of a start mix containing ribonucleotides (Promega, Catalog #P1300), biotinylated oligo (dT)25, magnesium, [α-^33P]-labeled ATP and DNA sequence. […] 50 μl of Microscint™PS (PerkinElmer, catalog #6013631) are then added to wells and the plate is read in a TopCount®NXT™ microplate scintillation and luminescence counter (PerkinElmer). […]
For another test, the target named is T1, E. coli RNA polymerase (Escherichia coli, UniProt P0A8V2).
T1 construct: purchased Epicentre Biotechnologies S90250
T1 sequence (P0A8V2 whole entry): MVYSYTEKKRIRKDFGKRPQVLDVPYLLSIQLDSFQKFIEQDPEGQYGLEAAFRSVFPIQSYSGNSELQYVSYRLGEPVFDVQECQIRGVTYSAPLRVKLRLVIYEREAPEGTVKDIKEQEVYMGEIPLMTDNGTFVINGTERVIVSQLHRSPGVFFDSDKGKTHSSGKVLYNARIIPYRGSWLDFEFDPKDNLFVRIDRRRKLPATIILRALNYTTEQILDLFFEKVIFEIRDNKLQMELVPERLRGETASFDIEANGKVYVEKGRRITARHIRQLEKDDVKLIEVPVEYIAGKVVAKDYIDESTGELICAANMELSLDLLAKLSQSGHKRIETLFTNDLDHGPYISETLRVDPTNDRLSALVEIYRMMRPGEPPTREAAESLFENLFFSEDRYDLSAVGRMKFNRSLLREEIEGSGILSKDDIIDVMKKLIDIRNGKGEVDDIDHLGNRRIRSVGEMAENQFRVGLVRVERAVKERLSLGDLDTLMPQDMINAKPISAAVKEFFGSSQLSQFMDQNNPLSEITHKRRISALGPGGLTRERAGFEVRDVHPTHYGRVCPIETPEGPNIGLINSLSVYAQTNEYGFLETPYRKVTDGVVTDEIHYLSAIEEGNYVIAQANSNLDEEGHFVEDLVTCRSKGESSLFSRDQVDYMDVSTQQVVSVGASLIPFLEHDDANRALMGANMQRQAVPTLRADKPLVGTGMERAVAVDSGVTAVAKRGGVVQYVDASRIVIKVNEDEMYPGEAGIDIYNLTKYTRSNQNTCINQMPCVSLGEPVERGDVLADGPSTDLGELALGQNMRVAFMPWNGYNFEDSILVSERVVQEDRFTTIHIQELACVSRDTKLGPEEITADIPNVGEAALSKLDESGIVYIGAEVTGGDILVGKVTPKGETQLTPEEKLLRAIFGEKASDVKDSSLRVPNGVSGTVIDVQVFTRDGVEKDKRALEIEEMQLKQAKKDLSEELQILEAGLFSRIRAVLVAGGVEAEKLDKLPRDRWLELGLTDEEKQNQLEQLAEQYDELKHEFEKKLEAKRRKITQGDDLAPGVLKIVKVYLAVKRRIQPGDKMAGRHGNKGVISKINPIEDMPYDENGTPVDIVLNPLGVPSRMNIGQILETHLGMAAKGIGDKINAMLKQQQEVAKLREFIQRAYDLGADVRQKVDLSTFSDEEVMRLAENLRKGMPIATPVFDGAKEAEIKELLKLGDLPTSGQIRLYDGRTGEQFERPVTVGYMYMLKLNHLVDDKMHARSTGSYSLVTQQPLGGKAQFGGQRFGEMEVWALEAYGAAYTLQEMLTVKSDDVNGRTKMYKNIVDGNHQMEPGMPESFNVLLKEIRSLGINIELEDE
T1 sequence (P0A8T7 whole entry partner): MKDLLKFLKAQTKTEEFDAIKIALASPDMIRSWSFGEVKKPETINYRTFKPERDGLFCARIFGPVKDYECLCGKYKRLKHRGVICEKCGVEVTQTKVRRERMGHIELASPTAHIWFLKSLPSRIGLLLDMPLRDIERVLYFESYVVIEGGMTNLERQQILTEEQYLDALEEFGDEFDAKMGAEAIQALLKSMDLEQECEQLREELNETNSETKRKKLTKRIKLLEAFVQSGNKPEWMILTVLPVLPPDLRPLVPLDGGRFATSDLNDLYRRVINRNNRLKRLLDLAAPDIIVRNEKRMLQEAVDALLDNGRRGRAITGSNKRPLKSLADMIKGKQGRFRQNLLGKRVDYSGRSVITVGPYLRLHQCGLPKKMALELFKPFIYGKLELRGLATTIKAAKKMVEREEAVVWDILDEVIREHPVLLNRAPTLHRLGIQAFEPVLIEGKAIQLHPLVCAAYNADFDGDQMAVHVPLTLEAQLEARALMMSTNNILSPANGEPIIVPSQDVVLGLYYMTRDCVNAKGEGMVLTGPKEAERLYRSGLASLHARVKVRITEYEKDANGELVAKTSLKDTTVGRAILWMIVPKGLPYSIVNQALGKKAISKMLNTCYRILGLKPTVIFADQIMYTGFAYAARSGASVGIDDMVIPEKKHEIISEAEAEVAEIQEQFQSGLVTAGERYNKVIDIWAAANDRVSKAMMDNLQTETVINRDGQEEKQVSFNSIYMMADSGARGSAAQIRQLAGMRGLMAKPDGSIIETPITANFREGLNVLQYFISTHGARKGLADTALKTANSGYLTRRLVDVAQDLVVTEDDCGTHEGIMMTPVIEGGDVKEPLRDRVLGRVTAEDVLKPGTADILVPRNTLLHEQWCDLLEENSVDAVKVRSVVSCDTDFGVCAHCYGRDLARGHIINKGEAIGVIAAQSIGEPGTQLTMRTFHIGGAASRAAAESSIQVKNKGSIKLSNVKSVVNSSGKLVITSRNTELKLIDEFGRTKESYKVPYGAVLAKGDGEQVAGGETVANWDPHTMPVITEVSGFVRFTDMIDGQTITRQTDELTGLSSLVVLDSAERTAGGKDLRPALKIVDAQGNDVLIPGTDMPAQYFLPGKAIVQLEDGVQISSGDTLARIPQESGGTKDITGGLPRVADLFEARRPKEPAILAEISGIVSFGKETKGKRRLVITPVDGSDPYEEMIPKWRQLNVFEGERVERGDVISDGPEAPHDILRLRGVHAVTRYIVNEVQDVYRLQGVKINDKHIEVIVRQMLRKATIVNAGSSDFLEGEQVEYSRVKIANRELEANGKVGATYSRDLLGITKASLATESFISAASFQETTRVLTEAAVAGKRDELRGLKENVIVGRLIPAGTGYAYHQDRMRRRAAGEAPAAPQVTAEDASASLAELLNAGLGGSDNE
T1 sequence (P0A7Z4 whole entry partner): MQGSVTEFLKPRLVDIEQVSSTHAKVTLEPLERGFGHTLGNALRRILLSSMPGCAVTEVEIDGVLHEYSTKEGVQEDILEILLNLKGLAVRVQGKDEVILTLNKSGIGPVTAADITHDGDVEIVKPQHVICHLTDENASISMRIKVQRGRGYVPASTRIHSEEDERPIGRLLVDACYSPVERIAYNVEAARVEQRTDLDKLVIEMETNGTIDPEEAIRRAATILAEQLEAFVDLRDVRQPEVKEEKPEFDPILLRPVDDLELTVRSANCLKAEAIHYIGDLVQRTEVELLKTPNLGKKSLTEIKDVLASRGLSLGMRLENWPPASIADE
T1 sequence (P0A800 2-91 partner limits assumed): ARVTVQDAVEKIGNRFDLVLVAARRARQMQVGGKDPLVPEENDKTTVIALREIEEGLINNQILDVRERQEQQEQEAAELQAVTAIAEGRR
T1 sequence (P00579 whole entry partner): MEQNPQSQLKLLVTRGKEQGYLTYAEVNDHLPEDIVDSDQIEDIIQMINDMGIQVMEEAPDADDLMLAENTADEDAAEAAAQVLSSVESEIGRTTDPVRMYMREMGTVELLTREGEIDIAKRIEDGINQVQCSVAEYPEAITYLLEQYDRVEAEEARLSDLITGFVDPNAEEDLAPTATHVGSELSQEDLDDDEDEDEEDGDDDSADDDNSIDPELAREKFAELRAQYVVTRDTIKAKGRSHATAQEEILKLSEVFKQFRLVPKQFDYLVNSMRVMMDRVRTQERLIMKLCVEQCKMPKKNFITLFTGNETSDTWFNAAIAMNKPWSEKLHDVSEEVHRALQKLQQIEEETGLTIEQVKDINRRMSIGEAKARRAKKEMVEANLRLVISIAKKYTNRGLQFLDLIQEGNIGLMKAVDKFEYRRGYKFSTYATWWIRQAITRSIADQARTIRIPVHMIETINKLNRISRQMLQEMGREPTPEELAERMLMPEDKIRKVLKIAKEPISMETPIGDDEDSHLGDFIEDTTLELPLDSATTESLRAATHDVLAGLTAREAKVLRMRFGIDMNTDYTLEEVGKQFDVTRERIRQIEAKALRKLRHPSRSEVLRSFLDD
The test can be described thus: In vitro plate-based transcription assay, inhibition of RNA polymerase activity (radiometric). The note with it: FIG. 10; 12.5 μM each rNTP, 2.5 mM Mg2+, 0.1 Unit RNA polymerase; read-out: IC50 value for inhibition of the in vitro transcription reaction. As for the experimental part: Synthetic DNA primers and a biotinylated oligo (dT) may be obtained from the Keck Foundation Biotechnology Resource Center at Yale University. Flavin mononucleotide (FMN) may be purchased from Fluka BioChemika (catalog #83810). [α-^33P] labeled Adenosine 5′ triphosphate was acquired from American Radiolabeled Chemicals, Inc. (catalog #ARP0131). In vitro plate-based transcription assay: In vitro transcription reactions are carried out at 25° C. in a total reaction volume of 50 μL. […] 50 μl of Microscint™PS (PerkinElmer, catalog #6013631) are then added to wells and the plate is read in a TopCount®NXT™ microplate scintillation and luminescence counter (PerkinElmer). Other readers and counters may be also be used.
The antibacterial rifampin is an RNA polymerase inhibitor (Liu, J., Feldman, P. A., Lippy, J. S., Bobkova, K., Kurilla, M. G, and Chung, T. D. Y., 2001 Analytical Biochemistry, 289, 239-245, Fujii, K., Saito, H., Tomioka, H., Mae, and T., Hosoe, K., 1995 Antimicrobial Agents and Chemotherapy, 39, 1489-1492, Morris, A. B., Brown, R. B., and Sands, M., 1993 Antimicrobial Agents and Chemotherapy 37, 1-7). Rifampin is titrated to inhibit in vitro transcription reaction and its inhibitory IC50 value is determined (FIG. 10). […]

One may read the IC50 as the concentration that inhibits the measured activity by half.

For `Cc1cc2nc3c(=O)[nH]c(=O)nc-3n(C[C@H](O)[C@H](O)[C@H](O)COP(=O)(O)O)c2cc1C` [FMN, Flavin mononucleotide], the IC50 in test [1] came to 116 nM; in test [2] (FIG. 11, 12.5 μM each rNTP, 2.5 mM Mg2+, 0.1 Unit RNA polymerase, radiolabel detection) it was 45 nM. Besides, the “Signal (cpm) of captured polyA full-length transcript” value in test [2] (FIG. 5A, 100 μM FMN versus no FMN, DNA sequence encoding a polyA sequence) is on record as “significant decrease in signal”.

`Cc1ncc(C[n+]2csc(CCOP(=O)(O)O)c2C)c(N)n1` [TMP, Thiamine monophosphate] came in with an IC50 in test [3] above 25000 nM.

`Cc1ncc(C[n+]2csc(CCO[P@](=O)(O)OP(=O)(O)O)c2C)c(N)n1` [TPP, Thiamine pyrophosphate]: the IC50 in test [3] turned out to be 170 nM.

`CO[C@H]1/C=C/O[C@@]2(C)Oc3c(C)c(O)c4c(O)c(c(/C=N/N5CCN(C)CC5)c(O)c4c3C2=O)NC(=O)/C(C)=C\C=C\[C@H](C)[C@H](O)[C@@H](C)[C@@H](O)[C@@H](C)[C@H](OC(C)=O)[C@@H]1C` [rifampin]: on E. coli RNA polymerase, the IC50 came out at 8.2 nM.

`Cc1cc2nc3c(=O)[nH]c(=O)nc-3n(C[C@H](O)[C@H](O)[C@H](O)CO)c2cc1N(C)C` [roseoflavine, roseoflavin] showed an IC50 in test [1] above 100000 nM.
